Literature values as cited in patent publication US7056909B2, “Alpha v integrin receptor antagonists” (Merck & Co., Inc., priority 2000, dated 2006).

Conditions: postmenopausal osteoporotic women, median of 22 months of treatment

## hPTH(1–34): human parathyroid hormone 1-34 fragment (SVSEIQLMHNLGKHLNSMERVEWLRKKLQDVHNF; Parathyroid hormone; UniProt P01270 32-65, looked up, fragment)
  reduction in nonvertebral fractures: 54%
  reduction in spine fractures: ≥ 65%
